In article PMC10916560 (Food Science & Nutrition, 2023):
Entries after “also recorded” stand apart in the source; their conditions may differ. Where two headings read alike, the source gives them in different places.

Tests used:
[1] = ABTS radical scavenging activity; type: biochemical; settings: 0.2 mg/mL; mean ± SD, n = 3
Procedure: ABTS also forms a relatively stable free‐radical that removes color in its non‐radical form (Shirwaikar et al., [2006]). Spectrophotometric analysis of ABTS˙^+ scavenging activity was determined according to the Re method. In this method, the sample is added to the previously formed ABTS radical solution, and the amount of ABTS˙^+ remaining after a fixed time is spectrophotometrically at 734 nm. […] The absorbance was recorded 30 min after mixing, and the percentage of radical scavenging was calculated for each concentration compared to the blank sample without scavenger (Necip & Durgun, [2022]; Re et al., [1999]).

[2] = DPPH radical scavenging activity; type: biochemical; settings: for DPPH radical scavenging activity: mean ± SD, n = 3; for free-radical scavenging activity (DPPH and ABTS): 0.2 mg/mL (200 μg/mL)
Procedure: The DPPH scavenging activities of PWE and isolated compounds were determined according to the method described by Blois ([1958]). In the method, the stable DPPH radical is removed by the free‐radical scavenging activity of the sample. […] Then, the prepared DPPH solution (1 mL, […]) was added, followed by incubation for 30 min in the dark. After incubation, the DPPH elimination activity of the sample was measured spectrophotometrically (Necip et al., [2021]).

[3] = biological target: AChE from electrophorus electricus (Electrophorus electricus, UniProt O42275); assay: biochemical
AChE from electrophorus electricus, sequence (O42275 24-633): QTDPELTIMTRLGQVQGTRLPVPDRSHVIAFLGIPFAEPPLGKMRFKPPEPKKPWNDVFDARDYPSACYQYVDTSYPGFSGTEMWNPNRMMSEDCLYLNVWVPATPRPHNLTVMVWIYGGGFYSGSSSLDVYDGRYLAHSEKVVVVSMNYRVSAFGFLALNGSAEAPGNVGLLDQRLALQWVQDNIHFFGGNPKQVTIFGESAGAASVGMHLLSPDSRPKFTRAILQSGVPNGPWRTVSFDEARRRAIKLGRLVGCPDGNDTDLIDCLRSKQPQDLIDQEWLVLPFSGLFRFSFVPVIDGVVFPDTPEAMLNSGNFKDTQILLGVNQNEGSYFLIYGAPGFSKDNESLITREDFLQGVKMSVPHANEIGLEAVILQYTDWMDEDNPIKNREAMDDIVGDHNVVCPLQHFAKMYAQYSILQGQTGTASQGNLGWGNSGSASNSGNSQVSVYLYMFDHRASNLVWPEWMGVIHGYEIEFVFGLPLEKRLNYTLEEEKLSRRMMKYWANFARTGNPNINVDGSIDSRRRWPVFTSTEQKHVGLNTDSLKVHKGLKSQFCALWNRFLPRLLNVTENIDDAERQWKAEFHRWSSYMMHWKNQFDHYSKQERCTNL
Procedure: Briefly, 50 μL of 5,5′‐dithio‐bis(2‐nitro‐benzoic) acid compound (DTNB) and 100 μL of Tris–HCl solution (1 M, pH 8.0) and 50 μL AChE from electrophorus electricus (5.32 × 10^−3 U) solution was incubated and stirred at 30°C for 15 min. Finally, the reaction was started by adding 50 μL of acetylthiocholine iodide (AChI), which was used as a substrate. Enzymatic hydrolysis of the substrate was recorded spectrophotometrically at a wavelength of 412 nm (Işık et al., [2020]; Wright & Plummer, [1973]). […] Percent inhibition values and IC50 values were determined using a graph (Kilic et al., [2020]).

AChE = settings: read-out: AChE IC50; ref El-Hady et al., 2013; cited from earlier work
[4] = ref El-Hady et al., 2013; cited from earlier work
[5] = FRAP metal reduction assay; type: biochemical; settings: for metal reduction capacity, FRAP (in words): 0.2 mg/mL, Figure 5; for metal-reducing capacity (in words): FRAP and CUPRAC, statement in discussion
Procedure: (§1) The ferric cyanide (Fe^3+) reducing antioxidant power (FRAP) assay was performed using the modified method of the previously described Oyaizu method (Oyaizu, [1986]). The complex is formed when the method is reduced to the ferrous (Fe^2+) ion to ferric tripyridyl triazene (Fe^3+‐TPTZ) complex at 700 nm. It is based on the spectrophotometric measurement of the complex. The reduction capacity for cupric ions (Cu^2+) was determined by cupric ions reducing assay (CUPRAC) as previously described. A volume of 0.25 mL neocuproine (7.5 mM) in ethanol, 0.25 mL NH4Ac (1 M), and 0.25 mL CuCl2 (0.01 M) were mixed with isolated compounds, PWE, and different amounts of standards (10, 20, and 40 μg/mL).

[6] = CUPRAC cupric ions reducing assay; type: biochemical; settings: 0.2 mg/mL, Figure 5
Procedure: as §1

SMILES	ABTS radical scavenging activity [1] [%]	DPPH radical scavenging activity ([2]; 0.2 mg/mL)	IC50 [3] [µM]	also measured
COc1cc(O)c2c(=O)cc(-c3ccc(O)cc3)oc2c1 [Genkwanin, genkwanin]	8.95 ± 0.8	Inactive	1150 ± 30	–
CC(C)=CCC[C@@H](C)[C@H]1CC[C@@]2(C)[C@@H]3CC[C@H]4C(C)(C)[C@@H](O)CC[C@@]45C[C@@]35CC[C@]12C [3β‐cycloartenol]	–	–	–	IC50 (AChE): 3.6 ± 0.1 µM; free-radical scavenging activity [4]: 59%
Cc1cc(C(C)(C)C)c(O)c(C(C)(C)C)c1 [BHT, reference compound]	58.06 ± 2.4	51.57 ± 1.5%	–	–
O=c1c(O)c(-c2ccccc2)oc2cc(O)cc(O)c12 [Galangin, galangin]	62.01 ± 1.9	44.73 ± 1.8%	790 ± 20	free-radical scavenging activity (DPPH and ABTS) ([2]; DPPH and ABTS): over 60%; metal reduction capacity, FRAP (in words) [5]: high metal reduction activity; metal-reducing capacity (in words) [5]: high metal‐reducing capacity; metal reduction capacity, CUPRAC (in words) ([6]; listed as 15): high metal reduction activity; also recorded: metal reduction capacity close to the standards
Cc1c(C)c2c(c(C)c1O)CCC(C)(C(=O)O)O2 (stereo not drawn) [Trolox, trolox, reference compound]	89.99 ± 3.2	90.37 ± 3.8%	–	–
COc1cc2ccc(=O)oc2c(O)c1O [Fraxetin, fraxetin]	87.44 ± 3.8	81.11 ± 1.7%	730 ± 40	radical scavenging activity (in words) ([2]; DPPH and ABTS, 0.2 mg/mL): highest radical scavenging activities; free-radical scavenging activity (DPPH and ABTS) ([2]; DPPH and ABTS): over 60%; metal reduction capacity, FRAP (in words) [5]: moderate metal reduction capacity; metal-reducing capacity (in words) [5]: high metal‐reducing capacity; metal reduction capacity, CUPRAC (in words) [6]: metal reduction capacity close to the standards
O=c1cc(-c2ccccc2)oc2cc(O)cc(O)c12 [Chrysin, chrysin]	4.35 ± 0.7	Inactive	640 ± 20	–
O=C1c2c(O)cc(O)cc2O[C@H](c2ccccc2)[C@H]1O [Pinobanksin, pinobanksin]	15.63 ± 0.9	3.55 ± 0.6%	450 ± 10	–
COc1ccc(O)c(C(C)(C)C)c1 [BHA, reference compound]	93.62 ± 3.6	80.20 ± 2.9%	–	–
O=C1C[C@@H](c2ccccc2)Oc2cc(O)cc(O)c21 [Pinocembrin, pinocembrin]	26.32 ± 1.3	Inactive	–	IC50 ([3]; isolated compounds, read-out: AChE (IC50)): 1100 ± 40 µM
O=c1cc(-c2ccc(O)cc2)oc2cc(O)cc(O)c12 [Apigenin, apigenin]	59.41 ± 1.5	79.02 ± 2.2%	710 ± 30	free-radical scavenging activity (DPPH and ABTS) ([2]; DPPH and ABTS): over 60%; metal reduction capacity, FRAP (in words) [5]: moderate metal reduction capacity; metal-reducing capacity (in words) [5]: high metal‐reducing capacity; metal reduction capacity, CUPRAC (in words) [6]: metal reduction capacity close to the standards
